Data taken from patent US10988474B2, “Compounds acting at multiple prostaglandin receptors giving a general anti-inflammatory response” (ALLERGAN, INC., priority 2011, dated 2021).

What was measured:
Assay type in all cases: cell-based
[1] = biological target: T1, human prostanoid FP receptor (Homo sapiens, UniProt P43088); assay: FLIPR Ca2+ signaling PG antagonist assay, FP stable cell line; conditions: HEK-293 EBNA cells, human recombinant FP, no exogenous G-protein; standard agonist 17-phenyl-PGF2α
T1 construct: expressed in transfected cells
T1 sequence (P43088 whole entry): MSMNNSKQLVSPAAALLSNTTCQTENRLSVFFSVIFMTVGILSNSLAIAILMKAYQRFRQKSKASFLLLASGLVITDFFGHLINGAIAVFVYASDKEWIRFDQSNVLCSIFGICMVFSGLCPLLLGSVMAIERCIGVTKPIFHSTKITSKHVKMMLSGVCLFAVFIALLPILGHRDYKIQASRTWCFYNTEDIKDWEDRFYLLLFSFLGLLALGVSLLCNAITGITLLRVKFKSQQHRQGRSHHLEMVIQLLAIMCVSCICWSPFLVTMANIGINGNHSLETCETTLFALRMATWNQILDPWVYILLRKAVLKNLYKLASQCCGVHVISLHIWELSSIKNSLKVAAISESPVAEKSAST
Method: (§1) The above compounds were tested for PG antagonist activity as follows using human recombinant prostanoid receptor (DP1, EP1-4, FP, IP and TP) stable cell lines: In order to measure the response of Gs and Gi coupled prostanoid receptors as a Ca^2+ signal, chimeric G protein cDNAs were used. Stable cell lines over-expressing human prostanoid DP1, EP1-4, FP, IP, and TP receptors were established as follows:
(§2) Briefly, human prostanoid DP1, EP2, and EP4 receptor cDNAs were co-transfected with chimeric Gqs cDNA containing a haemagglutanin (HA) epitope; human prostanoid EP3 receptors were co-transfected with chimeric Gqi-HA; human EP1, FP, IP, and TP receptor cDNAs were expressed with no exogenous G-proteins. Gqs and Gqi chimeric cDNAs (Molecular Devices, Sunnyvale, Calif., U.S.A.), as well as cDNAs of prostanoid receptors, were cloned into a pCEP4 vector with a hygromycin B selection marker. Transfection into HEK-293 EBNA (Epstein-Barr virus nuclear antigen) cells was achieved by the FuGENE 6 transfection Reagent (Roche Applied Science, Indianapolis, Ind., USA). Stable transfectants were selected according to hygromycin resistance. Because Gqs and Gqi contained an HA epitope, G-protein expression was detected by Western blotting analysis using anti-mouse HA monoclonal antibody and horseradish peroxidase (HRP)-conjugated secondary antibody, while functional expression of prostanoid receptors was detected by FLIPR screening (Matias et al., 2004). These stable cell lines were validated using previously published antagonists at 10 μM against serial dilutions of standard agonists by FLIPR functional assays for Ca^2+ Signaling (as described below).
(§3) Ca^2+ signaling studies were performed using a FLIPR TETRA system (Molecular Devices, Sunnyvale, Calif., USA) in the 384-format. This is a high-throughput instrument for cell-based assays to monitor Ca^2+ signaling associated with GPCRs and ion channels. Cells were seeded at a density of 5×10^4 cells/well in BioCoat poly-D-lysine coated, black wall, clear bottom 384-well plates (BD Biosciences, Franklin lakes, NJ, USA) and allowed to attach overnight in an incubator at 37° C. The cells were then washed twice with HBSS-HEPES buffer (Hanks' balanced salt solution without bicarbonate and phenol red, 20 mM HEPES, pH 7.4) using an ELx405 Select CW Microplate Washer (BioTek, Winooski, Vt., USA). After 60 min of dye-loading in the dark using the Ca^2+-sensitive dye Fluo-4AM (Invitrogen, Carlsbad, Calif., USA), at a final concentration of 2×10^−6M, the plates were washed 4 times with HBSS-HEPES buffer to remove excess dye and leaving 50 μl of buffer in each well. The plates were then placed in the FLIPR TETRA instrument and allowed to equilibrate at 37° C. Compounds were added in a 25 μl volume to each well to give final concentrations of 0.1 μM, 0.3 μM, 1 μM, 3 μM, 10 μM, and 30 μM; or 0.067 μM, 0.1 μM, 0.2 μM, 0.3 μM, 0.67 μM, and 1 μM for cells over-expressing TP receptors. After 4.5 minutes, a 7-point serial dilution of the standard agonist for the corresponding receptor, in a 25 μl volume was injected at the final concentrations from 10^−11M to 10^−5M in 10-fold serial dilution increments for cells expressing human recombinant DP1, EP1, EP2, EP3, EP4, FP, and IP receptors. The dose range for the standard agonist for human recombinant TP receptors was from 10^−12M to 10^−6M. HBSS-HEPES buffer was used as the negative control for the standard agonists. Cells were excited with LED (light emitting diode) excitation at 470-495 nm and emission was measured through an emission filter at 515-575 nm. Assay plates were read for 3.5 minutes using the FLIPR^TETRA. The peak increase in fluorescence intensity was recorded for each well. On each plate, negative controls, dose response of positive controls, and co-treatments of antagonist-agonist for each dose were in triplicates. Standard agonists were as follows: DP=BW 245C, EP1-EP4=PGE2, FP=17-phenyl-PGF2α, IP=Cicaprost, and TP=U-46619. […]

[2] = biological target: T2, human prostanoid EP1 receptor (Homo sapiens, UniProt P34995); assay: FLIPR Ca2+ signaling PG antagonist assay, EP1 stable cell line; conditions: HEK-293 EBNA cells, human recombinant EP1, no exogenous G-protein; standard agonist PGE2
T2 construct: expressed in transfected cells
T2 sequence (P34995 1-402): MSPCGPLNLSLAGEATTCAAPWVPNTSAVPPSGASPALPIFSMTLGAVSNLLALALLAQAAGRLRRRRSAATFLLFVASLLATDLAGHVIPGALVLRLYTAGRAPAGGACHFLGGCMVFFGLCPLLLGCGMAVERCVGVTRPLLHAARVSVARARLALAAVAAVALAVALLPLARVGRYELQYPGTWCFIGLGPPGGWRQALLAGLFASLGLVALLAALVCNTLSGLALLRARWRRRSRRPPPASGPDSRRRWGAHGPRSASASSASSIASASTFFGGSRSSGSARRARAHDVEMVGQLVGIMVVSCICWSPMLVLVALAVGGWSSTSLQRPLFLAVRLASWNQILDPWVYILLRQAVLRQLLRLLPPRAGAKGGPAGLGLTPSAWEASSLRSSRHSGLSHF
Method: as §1, §2, §3

[3] = biological target: T3, human prostanoid TP receptor (Homo sapiens, UniProt P21731); assay: FLIPR Ca2+ signaling PG antagonist assay, TP stable cell line; conditions: HEK-293 EBNA cells, human recombinant TP, no exogenous G-protein; standard agonist U-46619
T3 construct: expressed in transfected cells
T3 sequence (P21731 1-343): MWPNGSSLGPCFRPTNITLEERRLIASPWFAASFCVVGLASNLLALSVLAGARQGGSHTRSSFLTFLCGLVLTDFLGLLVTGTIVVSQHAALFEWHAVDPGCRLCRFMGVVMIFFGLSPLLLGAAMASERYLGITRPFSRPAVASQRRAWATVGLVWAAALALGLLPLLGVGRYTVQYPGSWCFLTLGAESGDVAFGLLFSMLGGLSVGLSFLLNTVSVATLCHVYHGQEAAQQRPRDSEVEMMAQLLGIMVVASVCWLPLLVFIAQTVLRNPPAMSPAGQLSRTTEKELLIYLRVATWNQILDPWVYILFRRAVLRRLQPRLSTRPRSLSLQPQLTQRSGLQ
Method: as §1, §2, §3

[4] = biological target: T4, human prostanoid EP2 receptor (Homo sapiens, UniProt P43116); assay: FLIPR Ca2+ signaling PG antagonist assay, EP2 stable cell line; conditions: HEK-293 EBNA cells, human recombinant EP2 with chimeric Gqs; standard agonist PGE2
T4 construct: expressed in transfected cells
T4 sequence (P43116 whole entry): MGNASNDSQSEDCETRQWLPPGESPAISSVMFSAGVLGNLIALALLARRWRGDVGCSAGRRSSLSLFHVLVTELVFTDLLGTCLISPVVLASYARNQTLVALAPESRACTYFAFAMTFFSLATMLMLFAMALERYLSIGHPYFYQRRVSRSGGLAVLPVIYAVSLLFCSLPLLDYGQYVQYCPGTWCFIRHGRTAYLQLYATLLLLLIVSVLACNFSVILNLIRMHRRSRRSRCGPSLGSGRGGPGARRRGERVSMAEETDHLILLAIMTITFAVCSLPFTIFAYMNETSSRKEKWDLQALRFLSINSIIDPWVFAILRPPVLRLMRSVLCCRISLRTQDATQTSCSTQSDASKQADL
Method: as §1, §2, §3

Question: Which Kb [1] does the source give for `CCC(CC)COc1ccc(Cl)cc1Cn1ncc2cc(C(N)=O)ncc21` [Example 62, 1-[5-Chloro-2-(2-Ethyl-Butoxy)-Benzyl]-1H-Pyrazolo[3,4-C]Pyridine-5-Carboxylic Acid Amide] here?
Answer: ≥ 10000 nM

Question: What about the Kb [2] of the same molecule?
Answer: ≥ 10000 nM

Question: And the Kb [3]?
Answer: ≥ 10000 nM

Question: What about the Kb [4] of the same molecule?
Answer: ≥ 10000 nM

Question: `CC1(COc2ccc(Br)cc2Cn2ncc3cc(C(=O)O)ccc32)CC1` [Example 19] was tested. Which Kb [1] did it give?
Answer: 16 nM

Question: And the Kb [2]?
Answer: 12 nM

Question: What about the Kb [3] of the same molecule?
Answer: 50 nM

Question: And the Kb [4]?
Answer: 8800 nM

Question: For `CCC(CC)COc1ccc(C(F)(F)F)cc1Cn1nc(C)c2cc(C(=O)O)ccc21` [Example 26, 1-[2-(2-Ethyl-Butoxy)-5-Trifluoromethyl-Benzyl]-3-Methyl-1H-Indazole-5-Carboxylic Acid], which Kb [1] is on record?
Answer: 500 nM

Question: And the Kb [2]?
Answer: 80 nM

Question: What about the Kb [3] of the same molecule?
Answer: 18 nM

Question: And the Kb [4]?
Answer: ≥ 10000 nM

Question: With `Cc1cc2cc(C(=O)O)ccc2n1Cc1cc(Br)ccc1OCC(C)C` [Example 66, 1-(5-Bromo-2-Isobutoxy-Benzyl)-2-Methyl-1H-Indole-5-Carboxylic Acid] as the molecule, how does the Kb [1] read?
Answer: 23 nM

Question: And the Kb [2]?
Answer: 50 nM

Question: What about the Kb [3] of the same molecule?
Answer: 320 nM

Question: What about the Kb [4] of the same molecule?
Answer: ≥ 10000 nM

Question: Which results are given for `CC(C)COc1cc(Cl)c(Cl)cc1Cn1ncc2cc(C(=O)O)ccc21` [Example 49, 1-(4,5-Dichloro-2-Isobutoxy-Benzyl)-1H-Indazole-5-Carboxylic Acid]?
Answer: Kb [1]: 70 nM; Kb [2]: 540 nM; Kb [3]: 6 nM; Kb [4]: ≥ 10000 nM

Question: Which Kb [1] does the source give for `O=C(O)c1cccc2nn(Cc3cc(Cl)ccc3OCC3CC3)cc12` [Example 35, 2-(5-Chloro-2-Cyclopropylmethoxy-Benzyl)-2H-Indazole-4-Carboxylic Acid] here?
Answer: 4300 nM

Question: What about the Kb [2] of the same molecule?
Answer: 4200 nM

Question: And the Kb [3]?
Answer: 1200 nM

Question: What about the Kb [4] of the same molecule?
Answer: ≥ 10000 nM

Question: Which Kb [1] does the source give for `CCC(CC)COc1ccc(Cl)cc1Cn1nc(C)c2cc(C(=O)O)cnc21` [Example 60, 1-[5-Chloro-2-(2-Ethyl-Butoxy)-Benzyl]-3-Methyl-1H-Pyrazolo[3,4-B]Pyridine-5-Carboxylic Acid] here?
Answer: 2500 nM

Question: What about the Kb [2] of the same molecule?
Answer: 410 nM

Question: What about the Kb [3] of the same molecule?
Answer: 410 nM

Question: And the Kb [4]?
Answer: 7500 nM

Question: How did the Kb [1] turn out when `Cc1nn(Cc2cc(Cl)ccc2OCC(C)C)c2ncc(C(=O)O)cc12` [Example 61, 1-(5-Chloro-2-Isobutoxy-Benzyl)-3-Methyl-1H-Pyrazolo[3,4-B]Pyridine-5-Carboxylic Acid] was run?
Answer: 1500 nM

Question: What about the Kb [2] of the same molecule?
Answer: 180 nM

Question: What about the Kb [3] of the same molecule?
Answer: 300 nM

Question: And the Kb [4]?
Answer: ≥ 10000 nM

Question: What does the source list for `CC(C)(C)COc1ccc(Br)cc1Cn1ncc2cc(C(=O)O)ccc21` [Example 52, 1-[5-Bromo-2-(2,2-Dimethyl-Propoxy)-Benzyl]-1H-Indazole-5-Carboxylic Acid]?
Answer: Kb [1]: 11 nM; Kb [2]: 24 nM; Kb [3]: 2 nM; Kb [4]: 3800 nM

Question: Which results are given for `O=C(O)c1cccc2c1cnn2Cc1cc(Cl)ccc1OCc1ccc(Cl)cc1` [Example 40, 1-[5-Chloro-2-(4-Chloro-Benzyloxy)-Benzyl]-1H-Indazole-4-Carboxylic Acid]?
Answer: Kb [1]: 270 nM; Kb [2]: 60 nM; TP (Kb, PG antagonist activity) [3]: Ag; Kb [4]: 900 nM

Question: Which results are given for `CCC(CC)COc1ccc(Br)cc1Cn1nc(C)c2cc(C(=O)O)cnc21` [Example 59, 1-[5-Bromo-2-(2-Ethyl-Butoxy)-Benzyl]-3-Methyl-1H-Pyrazolo[3,4-B]Pyridine-5-Carboxylic Acid]?
Answer: Kb [1]: 1300 nM; Kb [2]: 280 nM; Kb [3]: 320 nM; Kb [4]: ≥ 10000 nM

Question: Which results are given for `O=C(O)c1ccc2c(cnn2Cc2cc(Cl)ccc2OCc2ccccc2)c1` [Example 8, 1-(2-Benzyloxy-5-Chloro-Benzyl)-1H-Indazole-5-Carboxylic Acid]?
Answer: Kb [1]: 200 nM; Kb [2]: 220 nM; Kb [3]: 2100 nM; Kb [4]: 5000 nM

Question: How did the Kb [1] turn out when `Cc1nn(Cc2cc(Cl)ccc2OCC(C)C)c2ccc(C(=O)O)cc12` [Example 24, 1-(5-Chloro-2-Isobutoxy-Benzyl)-3-Methyl-1H-Indazole-5-Carboxylic Acid] was run?
Answer: 40 nM

Question: What about the Kb [2] of the same molecule?
Answer: 20 nM

Question: And the Kb [3]?
Answer: 80 nM

Question: And the Kb [4]?
Answer: 4500 nM

Question: Which results are given for `O=C(O)c1ccc2c(cnn2Cc2cc(C(F)(F)F)ccc2OCc2ccc(Cl)cc2)c1` [Example 32, 1-[2-(4-Chloro-Benzyloxy)-5-Trifluoromethyl-Benzyl]-1H-Indazole-5-Carboxylic Acid]?
Answer: Kb [1]: 50 nM; Kb [2]: 210 nM; Kb [3]: 50 nM; Kb [4]: ≥ 10000 nM

Question: For `CC(C)COc1ccc(Br)cc1Cn1ncc2ccc(C(=O)O)cc21` [Example 42, 1-(5-Bromo-2-Isobutoxy-Benzyl)-1H-Indazole-6-Carboxylic Acid], which Kb [1] is on record?
Answer: 900 nM

Question: And the Kb [2]?
Answer: 24 nM

Question: And the Kb [3]?
Answer: 20 nM

Question: And the Kb [4]?
Answer: ≥ 10000 nM

Question: With `CCC(CC)COc1ccc(Cl)cc1Cn1ncc2cc(C(=O)O)ccc21` [Example 2, 1-[5-Chloro-2-(2-Ethyl-Butoxy)-Benzyl]-1H-Indazole-5-Carboxylic ACID] as the molecule, how does the Kb [1] read?
Answer: 160 nM

Question: What about the Kb [2] of the same molecule?
Answer: 140 nM

Question: And the Kb [3]?
Answer: 110 nM

Question: And the Kb [4]?
Answer: 2900 nM

Question: With `CCC(CC)COc1ccc(OC(F)(F)F)cc1Cn1cc(C)c2cc(C(=O)O)ccc21` [Example 77, 1-[2-(2-Ethyl-Butoxy)-5-Trifluoromethoxy-Benzyl]-3-Methyl-1H-Indole-5-Carboxylic Acid] as the molecule, how does the Kb [1] read?
Answer: 9600 nM

Question: What about the Kb [2] of the same molecule?
Answer: 900 nM

Question: What about the Kb [3] of the same molecule?
Answer: 1100 nM

Question: And the Kb [4]?
Answer: 9200 nM

Question: With `CC(C)(O)COc1ccc(Br)cc1Cn1ncc2cc(C(=O)O)ccc21` [Example 53, 1-[5-Bromo-2-(2-Hydroxy-2-Methyl-Propoxy)-Benzyl]-1H-Indazole-5-Carboxylic Acid] as the molecule, how does the Kb [1] read?
Answer: 230 nM

Question: What about the Kb [2] of the same molecule?
Answer: 1500 nM

Question: What about the Kb [3] of the same molecule?
Answer: 1200 nM

Question: What about the Kb [4] of the same molecule?
Answer: ≥ 10000 nM

Question: What does the source list for `Cc1nn(Cc2cc(Br)ccc2OCC2(C)CC2)c2ccc(C(=O)O)cc12` [Example 28, 1-[5-Bromo-2-(1-Methyl-Cyclopropylmethoxy)-Benzyl]-3-Methyl-1H-Indazole-5-Carboxylic Acid]?
Answer: Kb [1]: 70 nM; Kb [2]: 43 nM; Kb [3]: 7 nM; Kb [4]: 9200 nM
